Source: publication PMC10281575, “PfCRT mutations conferring piperaquine resistance in falciparum malaria shape the kinetics of quinoline drug binding and transport” (PLOS Pathogens, 2023)
Positions count from the first letter of the chain named. Values joined by “and” are separate entries in the source; they are usually repeats but may differ in a detail not shown here. Identical values can stand only once.

Tests used:
water-injected oocytes = experiment: Radiolabeled drug uptake in water-injected control oocytes (intrinsic drug accumulation); assay type: cell-based, Xenopus laevis; conditions: 50 μM PPQ, pH 6.0; one value per biological replicate
Procedure: (§1) Adult female X. laevis frogs (purchased from NASCO) were anesthetized by submersion in a solution of 0.3% (w/v) 3-amino benzoate methanesulfonate for 15 min. Sections of the ovary were surgically removed and placed in Ca^2+-free ND96 buffer supplemented with 0.1% collagenase D (w/v; Roche), 0.5% BSA (w/v) and 9 mM Na2HPO4 at 18°C for 14–16 h while gently shaking. The oocytes were then washed several times with ND96 buffer (5 mM HEPES, pH 7.5, 96 mM NaCl, 2 mM KCl, 1.8 mM CaCl2, 1 mM MgCl2), supplemented with […] gentamycin. Healthy-looking stage V-VI oocytes were manually selected and randomly grouped for injection. A codon-optimized coding sequence of PfCRT was subcloned into the pSP64T expression vector and subsequently linearized using the restriction endonuclease BamHI or SalI (New England Biolabs GmbH). RNA for injection was transcribed in vitro using the mMESSAGE mMACHINE SP6 Transcription kit (Ambion), diluted with nuclease-free water to a final concentration of 0.6 μg/μL and stored at -80°C. RNA was injected using precision-bore glass capillary tubes (3.5-inch glass capillaries; Drummond Scientific Co.), which were pulled on a vertical puller (P-87 Flaming/Brown micropipette puller, Sutter Instrument Co.) and graduated. The micropipettes were connected to a microinjector (Nanoject II Auto-Nanoliter Injector, Drummond Scientific Co.). Injection was conducted under stereomicroscopic control. 50 nL of nuclease-free water alone (control oocytes) or 50 nL of nuclease-free water containing 30 ng of RNA was injected per oocyte. Injected oocytes were kept for 72 h at 18°C in ND96 buffer with two daily buffer changes before being used for further experiments.
(§2) Drug transport assays were performed as previously described. Briefly, measurements of radiolabeled drug uptake were made over 1 h, unless otherwise specified. […] Where specified, one or more unlabeled drugs were also present at the indicated concentrations. […] The uptake assays were terminated by removing the oocytes from the reaction medium and washing them three times with 2 mL of ice-cold ND96 buffer. Each oocyte was transferred to a separate scintillation vial and lysed by the addition of 200 μL of a 5% SDS solution. The radioactivity in the sample was measured using a liquid scintillation analyser Tri-Carb 4910 TR (PerkinElmer). Water-injected oocytes were analyzed in parallel as a negative control. The buffer from each condition was measured in duplicate in parallel to each experiment to transform counts per minute into pmol of drug. Drug uptake attributable to PfCRT was determined by subtracting the background uptake from water-injected oocytes from that of PfCRT-expressing oocytes. In all cases, at least three independent experiments were performed on oocytes from different frogs, and for each condition in an experiment, measurements were made from 10 oocytes per treatment.

PfCRT^Dd2_H97Y = target: T1, PfCRT^Dd2_H97Y (Plasmodium falciparum, UniProt Q8IBZ9, A220S/H97Y/I356T/K76T/M74I/N326S/N75E/Q271E/R371I); experiment: Radiolabeled drug uptake in X. laevis oocytes expressing PfCRT^Dd2_H97Y; assay type: cell-based
T1 construct: expressed in transfected cells; host or cells: Xenopus laevis oocytes injected with in vitro transcribed RNA (pSP64T)
T1 sequence (Q8IBZ9 1-424 M74I/N75E/K76T/H97Y/A220S/Q271E/N326S/I356T/R371I): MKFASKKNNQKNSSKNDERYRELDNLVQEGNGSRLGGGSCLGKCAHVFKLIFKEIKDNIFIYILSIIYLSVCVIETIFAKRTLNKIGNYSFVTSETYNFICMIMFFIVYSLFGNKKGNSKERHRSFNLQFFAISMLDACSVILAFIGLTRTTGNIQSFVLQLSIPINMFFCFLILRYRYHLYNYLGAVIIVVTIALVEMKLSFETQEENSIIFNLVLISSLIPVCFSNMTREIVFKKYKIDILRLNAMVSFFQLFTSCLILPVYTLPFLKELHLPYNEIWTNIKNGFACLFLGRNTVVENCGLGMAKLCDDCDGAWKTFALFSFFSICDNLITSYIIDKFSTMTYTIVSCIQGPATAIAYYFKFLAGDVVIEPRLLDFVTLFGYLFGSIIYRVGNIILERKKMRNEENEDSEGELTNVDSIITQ
Text: A codon-optimized coding sequence of the Dd2 isoform of PfCRT (PfCRT^Dd2) was subcloned into the pSP64T expression vector [21]. To generate the necessary mutations to introduce the amino acid substitutions H97Y, F145I, M343L or G353V into the pfcrt sequence, the overlap extension method was used. A region from the 5’-untranslated Xenopus β-globin sequence to the respective 3’ region, containing the full length pfcrt coding sequence, was amplified using the following primer pairs: for the H97Y mutation, numbers 1/4 and 2/3; for the F145I mutation, numbers 1/6 and 2/5; for the M343L mutation, numbers 1/8 and 2/7; and for the G353V mutation, numbers 1/10 and 2/9 (for primers, see S2 Table). Both PCR products were used as template for amplification of the final product using primers number 1/2. The resulting fragment was cloned into the pSP64T expression vector, and the presence of the desired mutation was confirmed by sequencing.
as §1, §2

PfCRT^Dd2_H97Y_F145I = target: T2, PfCRT^Dd2_H97Y_F145I (Plasmodium falciparum, UniProt Q8IBZ9, A220S/F145I/H97Y/I356T/K76T/M74I/N326S/N75E/Q271E/R371I); experiment: Radiolabeled drug uptake in X. laevis oocytes expressing PfCRT^Dd2_H97Y_F145I; assay type: cell-based; conditions: for PfCRTDd2_H97Y_F145I-mediated PPQ transport: individual replicates (Fig 11)
T2 construct: expressed in transfected cells; host or cells: Xenopus laevis oocytes injected with in vitro transcribed RNA
T2 sequence (Q8IBZ9 1-424 M74I/N75E/K76T/H97Y/F145I/A220S/Q271E/N326S/I356T/R371I): T1 sequence (Q8IBZ9 1-424 M74I/N75E/K76T/H97Y/A220S/Q271E/N326S/I356T/R371I) with F145I
Procedure: as §1, §2

[1] = Hill equation fit, 10-500 μM drug, pH 6

Q: Clc1ccc2c(N3CCN(CCCN4CCN(c5ccnc6cc(Cl)ccc56)CC4)CC3)ccnc2c1 [PPQ, piperaquine] was tested. Which “water-injected PPQ uptake at 10 min” value (water-injected oocytes) did it give?
A: The value was 41.08 pmol oocyte-1 and 24.73 pmol oocyte-1 and 20.03 pmol oocyte-1 and 11.15 pmol oocyte-1 and 47.19 pmol oocyte-1 and 42.00 pmol oocyte-1 and 43.00 pmol oocyte-1 and 24.03 pmol oocyte-1 and 24.68 pmol oocyte-1.

Q: What about the “water-injected PPQ uptake at 30 min” value (water-injected oocytes) of the same compound?
A: Its value is 39.93 pmol oocyte-1 and 81.64 pmol oocyte-1 and 110.61 pmol oocyte-1 and 36.25 pmol oocyte-1 and 63.03 pmol oocyte-1 and 70.49 pmol oocyte-1 and 61.47 pmol oocyte-1.

Q: And the “water-injected PPQ uptake at 60 min” value (water-injected oocytes)?
A: Its value is 160.55 pmol oocyte-1 and 290.10 pmol oocyte-1 and 103.17 pmol oocyte-1 and 89.81 pmol oocyte-1 and 146.11 pmol oocyte-1 and 119.20 pmol oocyte-1 and 106.15 pmol oocyte-1 and 92.97 pmol oocyte-1 and 66.51 pmol oocyte-1 and 37.81 pmol oocyte-1 and 81.90 pmol oocyte-1 and 130.00 pmol oocyte-1 and 94.16 pmol oocyte-1 and 115.25 pmol oocyte-1 and 26.09 pmol oocyte-1.

Q: And the “water-injected PPQ uptake at 90 min” value (water-injected oocytes)?
A: The value was 141.60 pmol oocyte-1 and 108.94 pmol oocyte-1 and 115.49 pmol oocyte-1 and 110.70 pmol oocyte-1 and 135.43 pmol oocyte-1 and 121.15 pmol oocyte-1 and 104.62 pmol oocyte-1.

Q: What about the “water-injected PPQ uptake at 120 min” value (water-injected oocytes) of the same compound?
A: Its value is 303.20 pmol oocyte-1 and 211.45 pmol oocyte-1 and 192.46 pmol oocyte-1 and 188.86 pmol oocyte-1 and 88.47 pmol oocyte-1 and 177.90 pmol oocyte-1 and 230.86 pmol oocyte-1 and 32.42 pmol oocyte-1 and 62.20 pmol oocyte-1 and 374.51 pmol oocyte-1 and 406.68 pmol oocyte-1.

Q: And the “water-injected PPQ uptake at 180 min” value (water-injected oocytes)?
A: Its value is 179.29 pmol oocyte-1 and 189.51 pmol oocyte-1 and 135.33 pmol oocyte-1 and 198.05 pmol oocyte-1 and 192.50 pmol oocyte-1 and 163.03 pmol oocyte-1 and 220.09 pmol oocyte-1 and 265.31 pmol oocyte-1 and 192.47 pmol oocyte-1.

Q: What about the “PfCRTDd2_H97Y-mediated PPQ uptake at 10 µM PPQ” value (PfCRT^Dd2_H97Y; 10 µM PPQ, single replicates) of the same compound?
A: Its value is 12.86 pmol oocyte-1 h-1 and 5.01 pmol oocyte-1 h-1 and 5.38 pmol oocyte-1 h-1.

Q: What about the “PfCRTDd2_H97Y-mediated PPQ uptake at 50 µM PPQ” value (PfCRT^Dd2_H97Y; 50 µM PPQ, single replicates) of the same compound?
A: Its value is 31.25 pmol oocyte-1 h-1 and 73.07 pmol oocyte-1 h-1 and 57.01 pmol oocyte-1 h-1 and 61.85 pmol oocyte-1 h-1 and 37.57 pmol oocyte-1 h-1 and 17.78 pmol oocyte-1 h-1.

Q: And the “PfCRTDd2_H97Y-mediated PPQ uptake at 100 µM PPQ” value (PfCRT^Dd2_H97Y; 100 µM PPQ, single replicates)?
A: Its value is 97.03 pmol oocyte-1 h-1 and 61.02 pmol oocyte-1 h-1 and 41.93 pmol oocyte-1 h-1 and 45.11 pmol oocyte-1 h-1.

Q: What about the “PfCRTDd2_H97Y-mediated PPQ uptake at 300 µM PPQ” value (PfCRT^Dd2_H97Y; 300 µM PPQ, single replicates) of the same compound?
A: The value was 103.79 pmol oocyte-1 h-1 and 76.95 pmol oocyte-1 h-1 and 76.45 pmol oocyte-1 h-1 and 130.46 pmol oocyte-1 h-1.

Q: What about the “PfCRTDd2_H97Y-mediated PPQ uptake at 500 µM PPQ” value (PfCRT^Dd2_H97Y; 500 µM PPQ, single replicates) of the same compound?
A: Its value is 133.65 pmol oocyte-1 h-1 and 96.27 pmol oocyte-1 h-1 and 74.35 pmol oocyte-1 h-1 and 131.71 pmol oocyte-1 h-1.

Q: And the “Vmax, maximal velocity of drug transport” value (PfCRT^Dd2_H97Y; Michaelis-Menten fit, 10-500 μM drug, pH 6)?
A: The value was 131 ± 6 pmol oocyte^-1 h^-1 and 183.94 pmol oocyte^-1 h^-1.

Q: And the Km (PfCRT^Dd2_H97Y; Michaelis-Menten fit, 10-500 μM drug, pH 6, read-out: KM, Michaelis constant)?
A: Its Km is 106 ± 14 µM.

Q: What about the “PfCRTDd2_H97Y_F145I-mediated PPQ transport” value (PfCRT^Dd2_H97Y_F145I; 10 µM PPQ) of the same compound?
A: The value was 4.45 pmol oocyte-1 h-1 and 2.50 pmol oocyte-1 h-1 and 6.51 pmol oocyte-1 h-1.

Q: And the “PfCRTDd2_H97Y_F145I-mediated PPQ transport” value (PfCRT^Dd2_H97Y_F145I; 50 µM PPQ)?
A: The value was 12.64 pmol oocyte-1 h-1 and 8.74 pmol oocyte-1 h-1 and 25.96 pmol oocyte-1 h-1 and 14.99 pmol oocyte-1 h-1 and 20.94 pmol oocyte-1 h-1.

Q: And the “PfCRTDd2_H97Y_F145I-mediated PPQ transport” value (PfCRT^Dd2_H97Y_F145I; 100 µM PPQ)?
A: Its value is 28.86 pmol oocyte-1 h-1 and 38.51 pmol oocyte-1 h-1 and 10.62 pmol oocyte-1 h-1 and 34.53 pmol oocyte-1 h-1.

Q: What about the “PfCRTDd2_H97Y_F145I-mediated PPQ transport” value (PfCRT^Dd2_H97Y_F145I; 200 µM PPQ) of the same compound?
A: Its value is 112.27 pmol oocyte-1 h-1 and 50.98 pmol oocyte-1 h-1 and 60.86 pmol oocyte-1 h-1 and 71.21 pmol oocyte-1 h-1 and 85.02 pmol oocyte-1 h-1.

Q: What about the “PfCRTDd2_H97Y_F145I-mediated PPQ transport” value (PfCRT^Dd2_H97Y_F145I; 300 µM PPQ) of the same compound?
A: Its value is 111.40 pmol oocyte-1 h-1 and 72.67 pmol oocyte-1 h-1 and 112.81 pmol oocyte-1 h-1 and 115.57 pmol oocyte-1 h-1.

Q: What about the “PfCRTDd2_H97Y_F145I-mediated PPQ transport” value (PfCRT^Dd2_H97Y_F145I; 400 µM PPQ) of the same compound?
A: Its value is 94.84 pmol oocyte-1 h-1 and 111.83 pmol oocyte-1 h-1 and 131.05 pmol oocyte-1 h-1.

Q: What about the “PfCRTDd2_H97Y_F145I-mediated PPQ transport” value (PfCRT^Dd2_H97Y_F145I; 500 µM PPQ) of the same compound?
A: The value was 81.84 pmol oocyte-1 h-1 and 171.24 pmol oocyte-1 h-1 and 123.65 pmol oocyte-1 h-1 and 87.38 pmol oocyte-1 h-1.

Q: And the “Hc, Hill coefficient” value (PfCRT^Dd2_H97Y_F145I; [1])?
A: The value was 2.0 ± 0.3.

Q: And the “Vmax, maximal velocity of drug transport” value (PfCRT^Dd2_H97Y_F145I; [1])?
A: The value was 131 ± 3 pmol oocyte^-1 h^-1 and 131 ± 10 pmol oocyte^-1 h^-1.

Q: And the Km (PfCRT^Dd2_H97Y_F145I; Hill equation fit, 10-500 μM drug, pH 6, read-out: KM, Michaelis constant)?
A: Its Km is 170 ± 20 µM.
